The record followed here is patent US10570184B2, “GLP-1/glucagon receptor co-agonists for medical use” (Novo Nordisk A/S, priority 2014, dated 2020).

The target in assay [1] is T1, human GLP-1 receptor (Homo sapiens, UniProt P43220).
T1 construct: expressed in transfected cells; host or cells: membranes of BHK cells (parent BHKTS13), clone FCW467-12A
The assay is described as follows: Assay (I)(a) GLP-1 receptor activation, CRE luciferase reporter gene assay in BHK cells. It counts as cell-based. Particulars: without presence of serum albumin; read-out: GLP-1R EC50 (pM) [Assay (I)(a)]. Here is the method:
The purpose of this example was to test the activity or potency, of the glucagon derivatives of the invention, in vitro. The in vitro potency is the measure of human GLP-1 receptor (GLP-1R) or glucagon receptor (glucagonR) activation, respectively, in a whole cell assay. In vitro potency was determined by measuring the response of human GLP-1 or glucagon receptor, respectively, in a reporter gene assay. The assay was performed in a stably transfected BHK cell line that expresses either the human GLP-1 receptor or the human glucagon receptor and contains the DNA for the cAMP response element (CRE) coupled to a promoter and the gene for firefly luciferase (CRE luciferase). […] When assay incubation was completed, the luciferase substrate (luciferin) was added and the enzyme converted luciferin to oxyluciferin and produces bioluminescence. The luminescence was measured as the readout for the assay. The cells used in this assay (clone FCW467-12A/KZ10-1) were BHK cells with BHKTS13 as a parent cell line. The cells were derived from a clone (FCW467-12A) that expresses the human GLP-1 receptor and were established by further transfection with CRE luciferase to obtain the current clone. The cells were cultured at 5% CO2 in DMEM medium with 10% FBS, 1×GlutaMAX, 1 mg/ml G418, 240 nM MTX (methotrexate) and 1% pen/strep (penicillin/streptomycin). They were aliquoted and stored in liquid nitrogen. Before each assay, an aliquot was taken up and washed three times in PBS before being suspended at the desired concentration in assay medium. For 96-well plates the suspension was made to give a final concentration of 5×10EE3 cells/well. The following chemicals were used in the assay: Pluronic F-68 (10%) (Gibco 2404), ovalbumin (Sigma A5503), DMEM w/o phenol red (Gibco 11880-028), 1 M Hepes (Gibco 15630), Glutamax 100× (Gibco 35050) and steadylite plus (PerkinElmer 6016757). Assay Medium consisted of DMEM w/o phenol red, 10 mM Hepes, 1× GlutaMAX, 2% Ovalbumin and 0.2% Pluronic F-68. Cell stocks were thawed in a 37° C. water bath. Cells were washed three times in PBS. The cells were counted and adjusted to 5×10EE3 cells/50 μl (1×10EE5 cells/ml) in Assay Medium. A 50 μl aliquot of cells was transferred to each well in the assay plate. Stocks of the test compounds and reference compounds were diluted to a concentration of […] in Assay Medium. Compounds were diluted 10-fold to give the following concentrations: 2×10EE-6 M, 2×10EE-7 M, 2×10EE-8 M; 2×10EE-9 M, 2×10EE-10 M, 2×10EE-11 M, 2×10EE-12 M and 2×10EE-13 M. For each compound a blank assay medium control was also included. A 50 μl aliquot of compound or blank was transferred from the dilution plate to the assay plate. Compounds were tested at the following final concentrations: 1×10EE-6 M, 1×10EE-7 M, 1×10EE-8 M; 1×10EE-9 M, 1×10EE-10 M, 1×10EE-11 M and 1×10EE-12 M and 1×10EE-13 M. The assay plate was incubated for 3 h in a 5% CO2 incubator at 37° C. The assay plate was removed from the incubator and allowed to stand at room temperature for 15 min. A 100 μl aliquot of steadylite plus reagent was added to each well of the assay plate (reagent is light sensitive). Each assay plate was covered with aluminum foil to protect it from light and shaken for 30 min at room temperature. Each assay plate was read in a Perkin Elmer TopCount NXT instrument. The data from the TopCount instrument was transferred to GraphPad Prism software. The software performed a non-linear regression (log(agonist) vs response-Variable slope (four parameter)). EC50 values were calculated by the software and reported in pM.
(Reporter assays use an easily measured gene product as a stand-in for the process of interest.)

The target of assay [2] is T1, human GLP-1 receptor. The experiment in a line: Assay (II)(a) GLP-1 receptor binding, 125I-GLP-1 displacement SPA on BHK membranes. Particulars: without presence of serum albumin; read-out: GLP-1R IC50 (nM) [Assay (II)(a)]. An outline of the steps: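 Membranes from BHK cells (clone FCW467-12A) stably expressing human GLP-1R were incubated with serially diluted compounds (8×10EE-13 to 8×10EE-7 M before addition) and [125I]-GLP-1-(7-36)NH2 with WGA SPA beads, 2 h at 30° C, pH 7.4. IC50 taken from displacement by non-linear regression. Run at ≤0.001% or 2.0% final serum albumin.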

Starred links: 1 amine or outer side, 2 acyl side, 3 side chain; linkers in the order of their positions; H or OH if unused. Non-standard residues stand in square brackets, D forms with d. Residues, ends and D or L forms follow the SMILES beside them. Groups on a side chain read outwards from the residue. *: point of attachment. C18 diacid = O=C(O)CCCCCCCCCCCCCCCCC(=O)*; γGlu = O=C(O)[C@H](CCC(=O)[*:2])N[*:1]; Ac4c = NC1(C(=O)O)CCC1; AEEA = NCCOCCOCC(=O)O; Aib = CC(C)(N)C(=O)O

T1 sequence (P43220 24-463): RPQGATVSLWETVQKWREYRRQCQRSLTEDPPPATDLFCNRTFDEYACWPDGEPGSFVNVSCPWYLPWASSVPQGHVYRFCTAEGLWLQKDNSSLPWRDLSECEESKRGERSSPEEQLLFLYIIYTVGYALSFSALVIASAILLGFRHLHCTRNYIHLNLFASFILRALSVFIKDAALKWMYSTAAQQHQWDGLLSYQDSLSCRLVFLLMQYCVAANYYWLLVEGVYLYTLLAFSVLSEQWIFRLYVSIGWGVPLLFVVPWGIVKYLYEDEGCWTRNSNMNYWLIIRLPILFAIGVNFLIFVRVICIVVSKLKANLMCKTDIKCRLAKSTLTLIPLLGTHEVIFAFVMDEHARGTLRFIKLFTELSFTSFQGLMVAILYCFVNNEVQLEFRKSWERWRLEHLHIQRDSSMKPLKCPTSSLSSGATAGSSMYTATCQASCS

Regarding `CC[C@H](C)[C@H](NC(=O)[C@H](CC(C)C)NC(=O)[C@H](Cc1c[nH]c2ccccc12)NC(=O)[C@H](CCC(N)=O)NC(=O)[C@@H](NC(=O)[C@H](Cc1ccccc1)NC(=O)[C@H](CCC(=O)O)NC(=O)[C@H](CCCNC(=N)N)NC(=O)[C@H](C)NC(=O)[C@H](CCCNC(=N)N)NC(=O)[C@H](CCCNC(=N)N)NC(=O)[C@H](C)NC(=O)[C@H](CC(=O)O)NC(=O)[C@H](CC(C)C)NC(=O)[C@H](Cc1ccc(O)cc1)NC(=O)[C@H](CCCCN)NC(=O)[C@H](CO)NC(=O)[C@H](CC(C)C)NC(=O)[C@H](CC(=O)O)NC(=O)[C@H](CO)NC(=O)[C@@H](NC(=O)[C@H](Cc1ccccc1)NC(=O)[C@@H](NC(=O)CNC(=O)[C@H](CCC(N)=O)NC(=O)C(C)(C)NC(=O)[C@@H](N)Cc1c[nH]cn1)[C@@H](C)O)[C@@H](C)O)C(C)C)C(=O)N[C@@H](CCCCNC(=O)COCCOCCNC(=O)COCCOCCNC(=O)CC[C@H](NC(=O)CC[C@H](NC(=O)CC[C@H](NC(=O)CCCCCCCCCCCCCCCCC(=O)O)C(=O)O)C(=O)O)C(=O)O)C(=O)N[C@H](C(N)=O)[C@@H](C)O` [Chem. 6, N^ε28-[2-[2-[2-[[2-[2-[2-[[(4S)-4-carboxy-4-[[(4S)-4-carboxy-4-[[(4S)-4-carboxy-4-(17-carboxyheptadecanoylamino)butanoyl]amino]butanoyl]amino]butanoyl]amino]ethoxy]ethoxy]acetyl]amino]ethoxy]ethoxy]acetyl]-[Aib2,Leu10,Ala16,Arg20,Glu21,Ile27,Lys28]-Glucagon amide] (H-H[Aib]QGTFTSDLSKYLDARRAREFVQWLIK([AEEA-AEEA-γGlu-γGlu-γGlu-C18 diacid])T-NH2; N-terminus assumed), the EC50 on human GLP-1 receptor [1] worked out at 5 pM. Also, the IC50 on human GLP-1 receptor [2] is 0.1 nM.
Turning to `CC[C@H](C)[C@H](NC(=O)[C@H](CC(C)C)NC(=O)[C@H](Cc1c[nH]c2ccccc12)NC(=O)[C@H](CCC(N)=O)NC(=O)[C@@H](NC(=O)[C@H](Cc1ccccc1)NC(=O)[C@H](CC(=O)O)NC(=O)[C@H](CCC(N)=O)NC(=O)[C@H](C)NC(=O)[C@H](CCCNC(=N)N)NC(=O)[C@H](CCCNC(=N)N)NC(=O)[C@H](CO)NC(=O)[C@H](CCC(=O)O)NC(=O)[C@H](CC(C)C)NC(=O)[C@H](Cc1ccc(O)cc1)NC(=O)[C@H](CCCCN)NC(=O)[C@H](CO)NC(=O)[C@H](CC(C)C)NC(=O)[C@H](CC(=O)O)NC(=O)[C@H](CO)NC(=O)[C@@H](NC(=O)[C@H](Cc1ccccc1)NC(=O)[C@@H](NC(=O)CNC(=O)[C@H](CCC(N)=O)NC(=O)C(C)(C)NC(=O)[C@@H](N)Cc1c[nH]cn1)[C@@H](C)O)[C@@H](C)O)C(C)C)C(=O)N[C@@H](CCCCNC(=O)COCCOCCNC(=O)COCCOCCNC(=O)CC[C@H](NC(=O)CC[C@H](NC(=O)CC[C@H](NC(=O)CCCCCCCCCCCCCCCCC(=O)O)C(=O)O)C(=O)O)C(=O)O)C(=O)N[C@H](C(N)=O)[C@@H](C)O` [Chem. 8, N^ε28-[2-[2-[2-[[2-[2-[2-[[(4S)-4-carboxy-4-[[(4S)-4-carboxy-4-[[(4S)-4-carboxy-4-(17-carboxyheptadecanoylamino)butanoyl]amino]butanoyl]amino]butanoyl]amino]ethoxy]ethoxy]acetyl]amino]ethoxy]ethoxy]acetyl]-[Aib2,Leu10,Glu15,Ile27,Lys28]-Glucagon amide] (H-H[Aib]QGTFTSDLSKYLESRRAQDFVQWLIK([AEEA-AEEA-γGlu-γGlu-γGlu-C18 diacid])T-NH2; N-terminus assumed), the EC50 at human GLP-1 receptor [1] came to 7 pM. On human GLP-1 receptor [2], the IC50 worked out at 0.1 nM.
As for `CC[C@H](C)[C@H](NC(=O)[C@H](CC(C)C)NC(=O)[C@H](Cc1c[nH]c2ccccc12)NC(=O)[C@H](CCC(N)=O)NC(=O)[C@@H](NC(=O)[C@H](Cc1ccccc1)NC(=O)[C@H](CC(=O)O)NC(=O)[C@H](CCC(N)=O)NC(=O)[C@H](C)NC(=O)[C@H](CCCNC(=N)N)NC(=O)[C@H](CCCNC(=N)N)NC(=O)[C@H](CO)NC(=O)[C@H](CCC(=O)O)NC(=O)[C@H](CC(C)C)NC(=O)[C@H](Cc1ccc(O)cc1)NC(=O)[C@H](CCCCN)NC(=O)[C@H](CO)NC(=O)[C@@H](NC(=O)[C@H](CC(=O)O)NC(=O)[C@H](CO)NC(=O)[C@@H](NC(=O)[C@H](Cc1ccccc1)NC(=O)[C@@H](NC(=O)CNC(=O)[C@H](CCC(N)=O)NC(=O)C(C)(C)NC(=O)[C@@H](N)Cc1c[nH]cn1)[C@@H](C)O)[C@@H](C)O)C(C)C)C(C)C)C(=O)N[C@@H](CCCCNC(=O)COCCOCCNC(=O)COCCOCCNC(=O)CC[C@H](NC(=O)CC[C@H](NC(=O)CC[C@H](NC(=O)CCCCCCCCCCCCCCCCC(=O)O)C(=O)O)C(=O)O)C(=O)O)C(=O)N[C@H](C(N)=O)[C@@H](C)O` [Chem. 10, N^ε28-[2-[2-[2-[[2-[2-[2-[[(4S)-4-carboxy-4-[[(4S)-4-carboxy-4-[[(4S)-4-carboxy-4-(17-carboxyheptadecanoylamino)butanoyl]amino]butanoyl]amino]butanoyl]amino]ethoxy]ethoxy]acetyl]amino]ethoxy]ethoxy]acetyl]-[Aib2,Val10,Glu15,Ile27,Lys28]-Glucagon amide] (H-H[Aib]QGTFTSDVSKYLESRRAQDFVQWLIK([AEEA-AEEA-γGlu-γGlu-γGlu-C18 diacid])T-NH2), the EC50 on human GLP-1 receptor [1] was 3 pM. Further, the IC50 at human GLP-1 receptor [2] was 0.1 nM.
On to `CC[C@H](C)[C@H](NC(=O)[C@H](CC(C)C)NC(=O)[C@H](Cc1c[nH]c2ccccc12)NC(=O)[C@H](CCC(N)=O)NC(=O)[C@@H](NC(=O)[C@H](Cc1ccccc1)NC(=O)[C@H](CCC(=O)O)NC(=O)[C@H](CCCNC(=N)N)NC(=O)[C@H](C)NC(=O)[C@H](CCCNC(=N)N)NC(=O)[C@H](CCCNC(=N)N)NC(=O)[C@H](CO)NC(=O)[C@H](CCC(=O)O)NC(=O)[C@H](CC(C)C)NC(=O)[C@H](Cc1ccc(O)cc1)NC(=O)[C@H](CCCCN)NC(=O)[C@H](CO)NC(=O)[C@H](CC(C)C)NC(=O)[C@H](CC(=O)O)NC(=O)[C@H](CO)NC(=O)[C@@H](NC(=O)[C@H](Cc1ccccc1)NC(=O)[C@@H](NC(=O)CNC(=O)[C@H](CCC(N)=O)NC(=O)C1(NC(=O)[C@@H](N)Cc2c[nH]cn2)CCC1)[C@@H](C)O)[C@@H](C)O)C(C)C)C(=O)N[C@@H](CCCCNC(=O)CC[C@H](NC(=O)CC[C@H](NC(=O)COCCOCCNC(=O)COCCOCCNC(=O)CC[C@H](NC(=O)CC[C@H](NC(=O)CCCCCCCCCCCCCCCCC(=O)O)C(=O)O)C(=O)O)C(=O)O)C(=O)O)C(=O)N[C@H](C(N)=O)[C@@H](C)O` [Chem. 13, N^ε28-[(4S)-4-carboxy-4-[[(4S)-4-carboxy-4-[[2-[2 [2-[[2-[2-[2-[[(4S)-4-carboxy-4-[[(4S)-4-carboxy-4-(17-carboxyheptadecanoylamino)butanoyl]amino]butanoyl]amino]ethoxy]ethoxy]acetyl]amino]ethoxy]ethoxy]acetyl]amino]butanoyl]amino]butanoyl]-[Acb2,Leu10,Glu15,Arg20,Glu21,Ile27,Lys28]-Glucagon amide] (H-H[Ac4c]QGTFTSDLSKYLESRRAREFVQWLIK([γGlu-γGlu-AEEA-AEEA-γGlu-γGlu-C18 diacid])T-NH2), for which, on human GLP-1 receptor [1], the EC50 came to 4 pM. Besides, the IC50 on human GLP-1 receptor [2] was found to be 0.1 nM.

Usually EC50 stands for the concentration that produces a half-maximal response. As usually defined, the IC50 is the point on the concentration scale where inhibition reaches its midpoint.
